# Results as given in PubChem BioAssay AID1259407 (Chemical Carcinogenesis Research Information System (CCRIS), 2018).
# Calls of active or inactive are those of the source. No rule for the calls is given here.
# Tested on: CCRIS mutagenicity, Ames/micronucleus/aberration tests
# Experiment: CCRIS mutagenicity studies
# [1] = Test System: AMES SALMONELLA TYPHIMURIUM, Strain/Indicator: TA98, Metabolic Activation: NONE, Method: PREINCUBATION
# [2] = Test System: AMES SALMONELLA TYPHIMURIUM, Strain/Indicator: TA98, Metabolic Activation: RAT, LIVER, S-9, AROCLOR 1254, Method: STANDARD PLATE
# [3] = Test System: AMES SALMONELLA TYPHIMURIUM, Strain/Indicator: TA100, Metabolic Activation: NONE, Method: PREINCUBATION
smiles,measurement,setting,value
CC(Br)Br,mutagenic call,"Test System: AMES SALMONELLA TYPHIMURIUM, Strain/Indicator: TA102, Metabolic Activation: NONE, Method: STANDARD PLATE",inactive; negative
same,mutagenic call,"Test System: AMES SALMONELLA TYPHIMURIUM, Strain/Indicator: TA2638, Metabolic Activation: NONE, Method: STANDARD PLATE",inactive; negative
same,mutagenic call,"Test System: E. COLI, Strain/Indicator: WP2 (PKM101), Metabolic Activation: NONE, Method: STANDARD PLATE",inactive; negative
same,mutagenic call,"Test System: E. COLI, Strain/Indicator: WP2 UVRA (PKM101), Metabolic Activation: NONE, Method: STANDARD PLATE",inactive; negative
[N-]=[N+]=NCCC(N)C(=O)O (stereo unspecified),mutagenic call,"Test System: AMES SALMONELLA TYPHIMURIUM, Strain/Indicator: TA1530, Metabolic Activation: NONE, Method: STANDARD PLATE",active; positive
CCC(=O)N(O)c1ccc2ccccc2c1,mutagenic call,[1],inactive; negative
same,mutagenic call,"Test System: AMES SALMONELLA TYPHIMURIUM, Strain/Indicator: TA98, Metabolic Activation: RAT, LIVER, CYTOSOL, Method: PREINCUBATION",inactive; negative
same,mutagenic call,"Test System: AMES SALMONELLA TYPHIMURIUM, Strain/Indicator: TA98, Metabolic Activation: RAT, LIVER, MICROSOMES, Method: PREINCUBATION",active; positive
CNc1ccc(N=Nc2ccc(NC)cc2)cc1,mutagenic call,"Test System: AMES SALMONELLA TYPHIMURIUM, Strain/Indicator: TA98, Metabolic Activation: RAT, LIVER, S-9, POLYCHLORINATED BIPHENYLS, Method: PREINCUBATION",inactive; negative
same,mutagenic call,"Test System: AMES SALMONELLA TYPHIMURIUM, Strain/Indicator: TA100, Metabolic Activation: RAT, LIVER, S-9, POLYCHLORINATED BIPHENYLS, Method: PREINCUBATION",inactive; negative
CCOC(=O)NNc1nncc2ccccc12,mutagenic call,"Test System: AMES SALMONELLA TYPHIMURIUM, Strain/Indicator: TA98, Metabolic Activation: NONE, Method: STANDARD PLATE",inactive; negative
same,mutagenic call,[2],inactive; negative
same,mutagenic call,"Test System: AMES SALMONELLA TYPHIMURIUM, Strain/Indicator: TA100, Metabolic Activation: RAT, LIVER, S-9, AROCLOR 1254, Method: STANDARD PLATE",inactive; negative
same,mutagenic call,"Test System: AMES SALMONELLA TYPHIMURIUM, Strain/Indicator: TA100, Metabolic Activation: RAT, LIVER, S-9, PHENOBARBITAL, Method: STANDARD PLATE",active; positive
same,mutagenic call,"Test System: AMES SALMONELLA TYPHIMURIUM, Strain/Indicator: TA1535, Metabolic Activation: NONE, Method: STANDARD PLATE",inactive; negative
same,mutagenic call,"Test System: AMES SALMONELLA TYPHIMURIUM, Strain/Indicator: TA1535, Metabolic Activation: RAT, LIVER, S-9, AROCLOR 1254, Method: STANDARD PLATE",inactive; negative
same,mutagenic call,"Test System: AMES SALMONELLA TYPHIMURIUM, Strain/Indicator: TA1537, Metabolic Activation: NONE, Method: STANDARD PLATE",inactive; negative
same,mutagenic call,"Test System: AMES SALMONELLA TYPHIMURIUM, Strain/Indicator: TA1537, Metabolic Activation: RAT, LIVER, S-9, AROCLOR 1254, Method: STANDARD PLATE",inactive; negative
same,mutagenic call,"Test System: AMES SALMONELLA TYPHIMURIUM, Strain/Indicator: TA1538, Metabolic Activation: NONE, Method: STANDARD PLATE",inactive; negative
same,mutagenic call,"Test System: AMES SALMONELLA TYPHIMURIUM, Strain/Indicator: TA1538, Metabolic Activation: RAT, LIVER, S-9, AROCLOR 1254, Method: STANDARD PLATE",inactive; negative
same,mutagenic call,"Test System: UDS RAT HEPATOCYTES, Strain/Indicator: THY INCORP, Metabolic Activation: NONE, Method: AUTORADIOGRAPHY",inactive; negative
O=[N+]([O-])c1ccc2c3c(cccc13)-c1ccccc1-2,mutagenic call,"Test System: AMES SALMONELLA TYPHIMURIUM, Strain/Indicator: TA97, Metabolic Activation: NONE",active; positive
same,mutagenic call,"Test System: AMES SALMONELLA TYPHIMURIUM, Strain/Indicator: TA98(1,8-DNP6), Metabolic Activation: NONE",active; positive
same,mutagenic call,"Test System: AMES SALMONELLA TYPHIMURIUM, Strain/Indicator: TA98(1,8-DNP6), Metabolic Activation: NONE, Method: STANDARD PLATE",active; positive
same,mutagenic call,"Test System: AMES SALMONELLA TYPHIMURIUM, Strain/Indicator: TA98(NR), Metabolic Activation: NONE",active; positive
same,mutagenic call,"Test System: AMES SALMONELLA TYPHIMURIUM, Strain/Indicator: TA98(NR), Metabolic Activation: NONE, Method: STANDARD PLATE",active; positive
same,mutagenic call,"Test System: AMES SALMONELLA TYPHIMURIUM, Strain/Indicator: TA98, Metabolic Activation: NONE",active; positive
same,mutagenic call,[2],active; positive
same,mutagenic call,"Test System: AMES SALMONELLA TYPHIMURIUM, Strain/Indicator: TA100(NR), Metabolic Activation: NONE, Method: STANDARD PLATE",inactive; negative
same,mutagenic call,"Test System: AMES SALMONELLA TYPHIMURIUM, Strain/Indicator: TA100(TN5-1,8-DNP1012), Metabolic Activation: NONE, Method: STANDARD PLATE",inactive; negative
same,mutagenic call,"Test System: AMES SALMONELLA TYPHIMURIUM, Strain/Indicator: TA100, Metabolic Activation: NONE",active; positive
same,mutagenic call,"Test System: AMES SALMONELLA TYPHIMURIUM, Strain/Indicator: TA100, Metabolic Activation: NONE, Method: STANDARD PLATE",active; positive
same,mutagenic call,"Test System: AMES SALMONELLA TYPHIMURIUM, Strain/Indicator: TA1535, Metabolic Activation: NONE",inactive; negative
same,mutagenic call,"Test System: AMES SALMONELLA TYPHIMURIUM, Strain/Indicator: TA1537, Metabolic Activation: NONE",active; positive
same,mutagenic call,"Test System: AMES SALMONELLA TYPHIMURIUM, Strain/Indicator: TA1538, Metabolic Activation: NONE",active; positive
same,mutagenic call,"Test System: AMES SALMONELLA TYPHIMURIUM, Strain/Indicator: TA1978, Metabolic Activation: NONE",active; positive
same,mutagenic call,"Test System: AMES SALMONELLA TYPHIMURIUM, Strain/Indicator: TA7001, Metabolic Activation: NONE, Method: PREINCUBATION",active; positive
same,mutagenic call,"Test System: AMES SALMONELLA TYPHIMURIUM, Strain/Indicator: TA7002, Metabolic Activation: NONE, Method: PREINCUBATION",active; positive
same,mutagenic call,"Test System: AMES SALMONELLA TYPHIMURIUM, Strain/Indicator: TA7003, Metabolic Activation: NONE, Method: PREINCUBATION",active; positive
same,mutagenic call,"Test System: AMES SALMONELLA TYPHIMURIUM, Strain/Indicator: TA7004, Metabolic Activation: NONE, Method: PREINCUBATION",active; positive
same,mutagenic call,"Test System: AMES SALMONELLA TYPHIMURIUM, Strain/Indicator: TA7005, Metabolic Activation: NONE, Method: PREINCUBATION",active; positive
same,mutagenic call,"Test System: AMES SALMONELLA TYPHIMURIUM, Strain/Indicator: TA7006, Metabolic Activation: NONE, Method: PREINCUBATION",active; positive
same,mutagenic call,"Test System: AMES SALMONELLA TYPHIMURIUM, Strain/Indicator: TM677, Metabolic Activation: RAT, LIVER, S-9, AROCLOR 1254, Method: STANDARD PLATE",active; positive
ClC(Cl)=C(Cl)/C(Cl)=C(\Cl)SCc1ccccc1,mutagenic call,[3],inactive; negative
same,mutagenic call,"Test System: AMES SALMONELLA TYPHIMURIUM, Strain/Indicator: TA100, Metabolic Activation: RAT, LIVER, S-9, AROCLOR 1254, Method: PREINCUBATION",active; positive
Cc1c(N)nc([C@H](CC(N)=O)NC[C@H](N)C(N)=O)nc1C(=O)N[C@H](C(=O)N[C@H](C)[C@@H](O)[C@H](C)C(=O)N[C@H](C(=O)NCCc1nc(-c2nc(C(=O)NCCCN(C)CCCN(Cc3ccc(OCc4ccccc4)c(OCc4ccccc4)c3)Cc3ccc(OCc4ccccc4)c(OCc4ccccc4)c3)cs2)cs1)[C@@H](C)O)[C@@H](O[C@@H]1O[C@@H](CO)[C@@H](O)[C@H](O)[C@@H]1O[C@H]1O[C@H](CO)[C@@H](O)[C@H](OC(N)=O)[C@@H]1O)c1cnc[nH]1,mutagenic call,"Test System: AMES SALMONELLA TYPHIMURIUM, Strain/Indicator: TA94, Metabolic Activation: NONE, Method: PREINCUBATION",inactive; negative
same,mutagenic call,"Test System: AMES SALMONELLA TYPHIMURIUM, Strain/Indicator: TA102, Metabolic Activation: NONE, Method: PREINCUBATION",active; positive
CCOC(=O)NC,mutagenic call,"Test System: MOUSE LYMPHOMA, Strain/Indicator: L5178Y (TK+/TK-), Metabolic Activation: NONE, Method: SUSPENSION/PLATE",inactive; negative
same,mutagenic call,"Test System: MOUSE LYMPHOMA, Strain/Indicator: L5178Y (TK+/TK-), Metabolic Activation: RAT, LIVER, S-9, AROCLOR 1254, Method: SUSPENSION/PLATE",active; positive
CC1(c2ccc(Br)cc2)CO1 (stereo unspecified),mutagenic call,[3],inactive; negative
CC(C)(C)OC(=O)N/N=C/c1c[n+]([O-])c2ccccc2[n+]1[O-],mutagenic call,[1],active; positive
same,mutagenic call,"Test System: AMES SALMONELLA TYPHIMURIUM, Strain/Indicator: TA98, Metabolic Activation: S-9, Method: PREINCUBATION",active; positive
same,mutagenic call,[3],active; positive
same,mutagenic call,"Test System: AMES SALMONELLA TYPHIMURIUM, Strain/Indicator: TA100, Metabolic Activation: S-9, Method: PREINCUBATION",active; positive
same,mutagenic call,"Test System: E. COLI, Strain/Indicator: WP2 UVRA (PKM101), Metabolic Activation: NONE",active; positive
same,mutagenic call,"Test System: E. COLI, Strain/Indicator: WP2 UVRA (PKM101), Metabolic Activation: S-9",active; positive
